Columns and labels:
[1] = biological target: HRAS (Homo sapiens, UniProt P01112); assay: SOS-catalyzed nucleotide exchange assay (Procedure A, TR-FRET); format: biochemical; conditions: 60 min preincubation, SOS + GTP, read-out: HRAS GNE IC50
Source text: (§1) Procedure for SOS-Catalyzed Nucleotide Exchange Assay for KRAS-G12C/D/V, G13D, HRAS, and NRAS (Procedure A)
(§2) Recombinant KRAS-G12C protein used in this assay has an additional triple mutation (C51S/C80L/C118S), whereas KRAS-G12D/V, G13D, HRAS and NRAS are in context of their WT protein sequence background. Specifically, the SOS-catalyzed nucleotide exchange assay utilizes a preformed TR-FRET complex containing a specific biotinylated RAS protein (KRAS-G12C/V/D, G13D, HRAS, NRAS; described above) with Bodipy-GDP, and Terbium-streptavidin. Compounds are preincubated with this complex for 60 minutes. Subsequently, recombinant human SOS protein and unlabeled GTP are added to initiate the exchange reaction. Small molecule inhibitors stabilize the Bodipy-GDP complex whereas the untreated protein rapidly exchanges Bodipy-GDP for unlabeled GTP resulting in reduced TR-FRET signal.
(§3) To assemble the preformed TR-FRET complexes, each biotinylated RAS protein is diluted to 2 μM in an EDTA Buffer (20 mM HEPES pH 7.5, 50 mM sodium chloride, 10 mM EDTA, and 0.01% Tween) and incubated at room temperature for one hour. This mixture is then further diluted to 90 nM in an Assay Buffer (20 mM HEPES pH 7.5, 150 mM sodium chloride, 10 mM magnesium chloride, and 0.005% Tween) containing 15 nM of Terbium-Streptavidin (Invitrogen, catalog #PV3577) and 900 nM of Bodipy-GDP (Invitrogen, catalog #G22360) and incubated at room temperature for six hours. It should be noted that this preformed TR-FRET complex for each of the RAS protein were made ahead of time, aliquoted and stored at −80° C. until the day of the experiment.
(§4) Each test compound (10 mM stock in DMSO) is diluted in DMSO to make a final-10-point, 3-fold dilution and is acoustically dispensed into a 384-well assay plate (Corning, catalog #3820) using an Echo 550 (Labcyte). Each well of the assay plate receives 3 μL of a specific 3× RAS preformed TR-FRET complex and 3 μL of Assay Buffer and is incubated at room temperature for 60 minutes (preincubation time). Each well then receives 3 μL of 3× recombinant human SOS protein and GTP (Sigma, G8877) in Assay Buffer and is incubated at room temperature for 30 minutes (G13D), 60 minutes (G12C/D, H/NRAS) or 90 minutes for G12V. The final reaction in each well of […] consists of 3 mM GTP, specific Ras and SOS proteins in the following concentrations: KRAS-G12C/SOS=3 nM/40 nM, KRAS-G12D/SOS=1 nM/40 nM, KRAS-G12V/SOS=1.25 nM/160 nM, KRAS-G13D/SOS=1.25 nM/0 nM, HRAS & NRAS=1.25 nM/40 nM.
(§5) The time-resolved fluorescence resonance energy transfer (TR-FRET) signal is measured on an Envision (PerkinElmer) plate reader: Excitation filter=340 nm; emission1=495 nm; emission2=520 nm; dichroic mirror=D400/D505; delay time=[…]. The signal of each well is determined as the ratio of the emission at 520 nm to that at 495 nm. Percent effect of each well is determined after normalization to control wells containing DMSO (no effect) or a saturating concentration of inhibitor (max effect). The apparent effect as a function of compound concentration is fit to a four-parameter logistic equation.

[2] = biological target: NRAS (Homo sapiens, UniProt P01111); assay: as above; format: biochemical; conditions: 60 min preincubation, SOS + GTP, read-out: NRAS GNE IC50
Source text: as §1, §2, §3, §4, §5

[3] = test system: SW620 cells (homozygous KRAS-G12V activating mutation); assay: Cellular phospho-ERK assay in G12V cell line; format: cell-based; conditions: Homo sapiens, SW-620, 2 hours compound incubation, ratio of p-ERK vs. total ERK, read-out: SW620 pERK IC50
Method: Procedure for Cellular Phospho-ERK Assay in G12D and G12V Cell Lines
PANC08.13 cells (ATCC® CRL-2551™), containing homozygous KRAS-G12D activating mutation, were cultured in growth medium made of RPMI1640-GlutaMAX™—I (ThermoFisher Scientific 61870) containing 15% heat inactivated fetal bovine serum (ThermoFisher Scientific 10091148)). SW620 cells (ATCC® […]), containing homozygous KRAS-G12V activating mutation, were cultured in growth medium that contains RPMI 1640-GlutaMAX™—I (ThermoFisher Scientific 61870) containing 10% heat inactivated fetal bovine serum (ThermoFisher Scientific 10091148).
Cells for the assay were harvested in growth medium after TrypLE (ThermoFisher scientific 12604021) digestion and were seeded in a 384-well collagen coated cell culture plate (Corning 356702) at a density of 10,000-15,000 cells/20 uL/well, and incubated at 37° C., 5% CO2 overnight. The compound (with 10 mM stock concentration) dose-response titrations were prepared [30 μM final ERK detection assay concentration and 1:3 dilutions, 10-point dose response] and appropriate amounts (270 nL) of test compounds were dispensed in a 384-well intermediate plate using an Echo 550 liquid handler. 30 uL/well of RPMI medium 1640-GlutaMAX™—I was added to the intermediate plate and the contents of the intermediate plate (10 uL/well) were then transferred to the 384-well collagen coated cell culture plate, which was incubated at 37° C., 5% CO2 for 2 hours. After removal of medium from the collagen coated cell culture plate, cells were lysed in lysis buffer from Alpha SureFire® Ultra™ Multiplex p-ERK and total ERK assay kit (PerkinElmer MPSU-PTERK) containing Halt™ Protease and Phosphatase inhibitor cocktail (ThermoFisher Scientific 78446) at room temperature with constant shaking at 300 rpm for 30 minutes. The cell lysates were then transferred to an OptiPlate-384 plate (PerkinElmer 6005620), and the phosphorylation of ERK (p-ERK) and total ERK levels were detected by Alpha SureFire® Ultra™ Multiplex p-EEK kit and total ERK assay kit (PerkinElmer MPSU-PTERK) following the manufacturer's protocol. Assay plates were read on a EnVision Multimode Plate Reader (PerkinElmer), and the ratio of p-ERK vs. total ERK in each well was used as the final readout. Dose response curves were analyzed using a 4-parameter logistic model to calculate IC50 values using Spotfire software.

[4] = biological target: T1, KRAS-G12D (Homo sapiens, UniProt P01116, G12D); assay: SOS-catalyzed nucleotide exchange assay (Procedure A, TR-FRET); format: biochemical; conditions: 60 min preincubation, SOS + GTP, read-out: KRAS G12D GNE IC50
T1 construct: N-terminal biotin-acceptor peptide […]
Method in brief: (§6)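 Preformed biotinylated RAS–Bodipy-GDP/Tb-streptavidin complex preincubated with compound 60 min at room temperature, then SOS plus GTP (3 mM final) added. Exchange times: G13D 30 min, G12C/D 60 min, G12V 90 min. Final RAS/SOS: G12C 3 nM/40 nM, G12D 1 nM/40 nM, G12V 1.25 nM/160 nM, G13D 1.25 nM/0 nM. TR-FRET 520/495 ratio, four-parameter fit.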

[5] = biological target: T2, KRAS-G12V (Homo sapiens, UniProt P01116, G12V); assay: as above; format: biochemical; conditions: 60 min preincubation, SOS + GTP, read-out: KRAS G12V GNE IC50
T2 construct: N-terminal biotin-acceptor peptide […]
Method in brief: as §6

[6] = biological target: T3, KRAS-G13D (Homo sapiens, UniProt P01116, G13D); assay: as above; format: biochemical; conditions: 60 min preincubation, GTP, read-out: KRAS G13D GNE IC50
T3 construct: N-terminal biotin-acceptor peptide […]
Method in brief: as §6

[7] = biological target: T4, KRAS-G12C (C51S/C80L/C118S) (Homo sapiens, UniProt P01116, C118S/C51S/C80L/G12C); assay: as above; format: biochemical; conditions: 60 min preincubation, SOS + GTP, read-out: KRAS G12C GNE IC50
T4 construct: N-terminal biotin-acceptor peptide […]
Method in brief: as §6

[8] = test system: PANC08.13 cells (homozygous KRAS-G12D activating mutation); assay: Cellular phospho-ERK assay in G12D cell line; format: cell-based; conditions: Homo sapiens, PANC-08-13, 2 hours compound incubation, ratio of p-ERK vs. total ERK, read-out: PANC 0813 pERK IC50
Method in brief: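 Cells (10,000-15,000/well) were seeded overnight, then treated for 2 h at 37 °C with a 10-point 1:3 titration from 30 μM final. Lysates were assayed by AlphaLISA SureFire Ultra multiplex, with the p-ERK/total-ERK ratio as read-out; IC50 came from a 4-parameter logistic fit.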

NRAS, sequence (P01111 with tags, fused parts or gaps): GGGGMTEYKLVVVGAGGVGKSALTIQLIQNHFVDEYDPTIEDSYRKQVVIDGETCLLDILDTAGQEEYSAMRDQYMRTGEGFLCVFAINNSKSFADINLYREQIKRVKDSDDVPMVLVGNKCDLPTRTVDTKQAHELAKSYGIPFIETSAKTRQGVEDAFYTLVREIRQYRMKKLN
T4 sequence (P01116 with tags, fused parts or gaps isoform P01116-2 G12C/C51S/C80L/C118S): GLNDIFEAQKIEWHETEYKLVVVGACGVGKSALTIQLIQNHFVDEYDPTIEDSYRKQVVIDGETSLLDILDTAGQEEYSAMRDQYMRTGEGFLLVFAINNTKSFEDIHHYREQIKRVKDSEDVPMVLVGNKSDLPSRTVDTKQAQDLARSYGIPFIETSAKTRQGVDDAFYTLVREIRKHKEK
T3 sequence (P01116 with tags, fused parts or gaps isoform P01116-2 G13D): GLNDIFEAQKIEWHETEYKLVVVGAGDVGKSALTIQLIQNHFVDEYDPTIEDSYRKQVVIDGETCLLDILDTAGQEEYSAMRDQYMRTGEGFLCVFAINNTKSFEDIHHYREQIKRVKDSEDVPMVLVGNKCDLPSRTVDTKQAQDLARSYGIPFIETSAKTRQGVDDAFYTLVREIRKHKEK
HRAS, sequence (P01112 with tags, fused parts or gaps): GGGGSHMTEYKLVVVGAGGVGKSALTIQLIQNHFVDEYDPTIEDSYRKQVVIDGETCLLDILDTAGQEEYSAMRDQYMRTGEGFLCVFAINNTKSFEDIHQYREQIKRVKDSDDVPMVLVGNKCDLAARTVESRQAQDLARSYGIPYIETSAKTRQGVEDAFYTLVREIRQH
T1 sequence (P01116 with tags, fused parts or gaps isoform P01116-2 G12D): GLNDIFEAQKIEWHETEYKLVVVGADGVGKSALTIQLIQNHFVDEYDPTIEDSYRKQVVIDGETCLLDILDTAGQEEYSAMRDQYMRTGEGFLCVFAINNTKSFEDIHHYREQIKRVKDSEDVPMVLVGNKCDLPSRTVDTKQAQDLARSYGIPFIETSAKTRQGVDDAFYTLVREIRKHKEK
T2 sequence (P01116 with tags, fused parts or gaps isoform P01116-2 G12V): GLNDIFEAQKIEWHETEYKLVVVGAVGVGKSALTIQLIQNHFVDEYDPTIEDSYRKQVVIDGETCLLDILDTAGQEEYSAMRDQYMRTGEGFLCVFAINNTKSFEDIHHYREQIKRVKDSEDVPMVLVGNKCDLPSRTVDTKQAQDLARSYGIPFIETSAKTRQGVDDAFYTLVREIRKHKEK

`N#Cc1c(N)sc2c(F)ccc(-c3c(Cl)cc4c(N5CCCOCC5)nc(OC[C@@]56CCCN5C[C@H](F)C6)nc4c3F)c12` [Ex. 4, 2-amino-4-(6-chloro-8-fluoro-2-(((2R,7aS)-2-fluorotetrahydro-1H-pyrrolizin-7a(5H)-yl)methoxy)-4-(1,4-oxazepan-4-yl)quinazolin-7-yl)-7-fluorobenzo[b]thio-phene-3-carbonitrile] gave an IC50 [1] of over 11100 nM, an IC50 [2] of over 11100 nM and an IC50 [3] of 48.6 nM. The IC50 [4] was 7.62 nM, the IC50 [5] was 3.33 nM and the IC50 [6] was 7.62 nM. It also gave an IC50 [7] of 15.5 nM and an IC50 [8] of 56.2 nM.

Work on `C[C@H]1CCOCCN1c1nc(OC[C@@]23CCCN2C[C@H](F)C3)nc2c(F)c(-c3ccc(F)c4sc(N)c(C#N)c34)c(Cl)cc12` [Ex. 6, 2-amino-4-(6-chloro-8-fluoro-2-(((2R,7aS)-2-fluorotetrahydro-1H-pyrrolizin-7a(5H)-yl)methoxy)-4-((S)-5-methyl-1,4-oxazepan-4-yl)quinazolin-7-yl)-7-fluorobenzo[b]thio-phene-3-carbonitrile] yielded an IC50 [1] of 2190 nM, an IC50 [2] of 9490 nM and an IC50 [3] of 18.8 nM. It also gave an IC50 [4] of 3.78 nM, an IC50 [5] of 3.15 nM and an IC50 [6] of 2.4 nM. The IC50 [7] was 9.16 nM and the IC50 [8] was 33.9 nM.

In the case of `N#Cc1c(N)sc2c(F)ccc(-c3ncc4c(N5CCCOCC5)nc(OC[C@@]56CCCN5C[C@H](F)C6)nc4c3F)c12` [Ex. 20, 2-amino-7-fluoro-4-(8-fluoro-2-(((2R,7aS)-2-fluorotetrahydro-1H-pyrrolizin-7a(5H)-yl)methoxy)-4-(1,4-oxazepan-4-yl)pyrido[4,3-d]pyrimidin-7-yl)benzo[b]thiophene-3-carbonitrile], the IC50 [1] is reported as over 11100 nM, the IC50 [2] is reported as over 11100 nM and the IC50 [3] is reported as 510 nM. For the same molecule, the IC50 [4] was 294 nM, the IC50 [5] was 60 nM and the IC50 [6] was 93.1 nM. The IC50 [7] was 75.5 nM and the IC50 [8] was 1420 nM.

With `CN(C)C[C@@]1(COc2nc(N3CCCOCC3)c3cc(Cl)c(-c4ccc(F)c5sc(N)c(C#N)c45)c(F)c3n2)CC1(F)F` [Ex. 24, 2-amino-4-(6-chloro-2-(((R)-1-((dimethylamino)methyl)-2,2-difluorocyclopropyl)methoxy)-8-fluoro-4-(1,4-oxazepan-4-yl)quinazolin-7-yl)-7-fluorobenzo[b]thiophene-3-carbonitrile] the IC50 [1] was over 11100 nM, the IC50 [2] was over 11100 nM and the IC50 [3] was 93.1 nM. For the same molecule, the IC50 [4] was 51.8 nM, the IC50 [5] was 9.52 nM and the IC50 [6] was 28.8 nM. The IC50 [7] was 30.4 nM and the IC50 [8] was 233 nM.

`Cc1cc(N)nc(-c2c(Cl)cc3c(N4CCCCOCC4)nc(OC[C@@]45CCCN4C[C@H](F)C5)nc3c2F)c1C(F)(F)F` [Ex. 39, 6-(6-chloro-8-fluoro-2-(((2R,7aS)-2-fluorotetrahydro-1H-pyrrolizin-7a(5H)-yl)methoxy)-4-(1,4-oxazocan-4-yl)quinazolin-7-yl)-4-methyl-5-(trifluoromethyl)pyridin-2-amine] was tested, and the IC50 [1] was over 11100 nM, the IC50 [2] was over 11100 nM and the IC50 [3] was 422 nM. For the same molecule, the IC50 [4] was 515 nM, the IC50 [5] was 32.2 nM and the IC50 [6] was 145 nM. For the same molecule, the IC50 [7] was 63.1 nM and the IC50 [8] was 1320 nM.

In the case of `Cc1cc2[nH]ncc2c(-c2c(F)cc3c(N4CCCOCC4)nc(OC[C@@]45CCCN4C[C@H](F)C5)nc3c2F)c1C(F)(F)F` [Ex. 44, 4-(6,8-difluoro-2-(((2R,7aS)-2-fluorotetrahydro-1H-pyrrolizin-7a(5H)-yl)methoxy)-7-(6-methyl-5-(trifluoromethyl)-1H-indazol-4-yl)quinazolin-4-yl)-1,4-oxazepane], the IC50 [1] is reported as over 11100 nM, the IC50 [2] is reported as over 11100 nM and the IC50 [3] is reported as 901 nM. The IC50 [4] was 505 nM, the IC50 [5] was 235 nM and the IC50 [6] was 365 nM. It also gave an IC50 [7] of 96.3 nM and an IC50 [8] of 1300 nM.

`CC1COCCCN1c1nc(OC[C@@]23CCCN2C[C@H](F)C3)nc2c(F)c(-c3ccc(F)c4sc(N)c(C#N)c34)c(Cl)cc12` (stereo partly drawn) [compound 5, 2-amino-4-(6-chloro-8-fluoro-2-(((2R,7aS)-2-fluorotetrahydro-1H-pyrrolizin-7a(5H)-yl)methoxy)-4-(3-methyl-1,4-oxazepan-4-yl)quinazolin-7-yl)-7-fluorobenzo[b]thio-phene-3-carbonitrile] gave an IC50 [1] of over 11100 nM, an IC50 [2] of over 11100 nM and an IC50 [3] of 120 nM. The IC50 [4] was 15.2 nM, the IC50 [5] was 6.15 nM and the IC50 [6] was 13.4 nM. It also gave an IC50 [7] of 18 nM and an IC50 [8] of 123 nM.
